Experimental data taken from PubChem BioAssay AID1963831 (Molecular Pharmacology Branch, DTP, NCI, 2024).
Several values for one entry are separate records, joined by “and”; a condition that tells them apart may be missing. Equal entries are not always repeated.

System: 889142-216-R-J1-PDC complex spheroid viability
Assay: Anticancer human tumor 889142-216-R-J1-PDC patient-derived bladder carcinoma cell line growth inhibition [POLQ]
Details: for viability, T/C: stronger effect = lower value
Procedure: Multicellular complex tumor spheroid response to Polymerase (POL) inhibitors (novobiocin, ART-558, RP6685) in combination with a variety of drugs and investigational agents in selected tumor cell lines
The POL inhibitors (novobiocin, ART-558, and RP6685) were evaluated both individually and in combination with standard of care and investigational anticancer small molecules within a complex spheroid model of solid tumors. . Complex spheroids include a stromal component modeled by human endothelial cells (HUVEC) and fibroblasts modeled by human mesenchymal stem cells (MSCs). The concentration ranges selected for each drug and investigational agent were based upon clinically achievable concentrations if the clinical Cmax of the agent was known.
Compounds. The drugs and investigational agents: novobiocin (NSC847541), ART-558 (NSC835418), RP-6685 (NSC848927), peposertib (NSC802822), ceralasertib (NSC780249), elimusertib (NSC800525), camonsertib (NSC841442), AZD-1390 (NSC803789), olaparib (NSC753686), talazoparib (NSC767125), rucaparib (NSC756644), sotorasib (NSC818433), MRTX-1133 (NSC836407), SN-38 (NSC673596), topotecan (NSC609699), epotoside (NSC141540), doxorubicin (NSC123127), gemcitabine (NSC613327), 5-fluorouracil (NSC19893), paclitaxel (NSC125973), vemurafenib (NSC761431), MSA-2 (NSC828583), SN-011 (NSC837082), adavosertib (NSC754352), prexasertib (NSC758257), carboplatin (NSC241240) and oxaliplatin (NSC266046), were obtained from the National Cancer Institute (NCI) Developmental Therapeutics Program Chemical Repository (21). The FDA-approved anticancer drug set is available from the Developmental Therapeutics Program at https://dtp.cancer.gov/organization/dscb/obtaining/. […] The stock solutions were prepared in dimethyl sulfoxide (DMSO, Sigma-Aldrich, St. Louis, MO, cat. D2650), except for the platinum compounds which were prepared in saline (Quality Biological, Gaithersburg, MD, cat. 114-055-101), at 800-fold the tested concentration and stored at -70 degrees C prior to their use. All drugs and investigational agents were tested over a range starting from a high concentration at or near the clinical Cmax and decreasing in half-log increments. If the clinical Cmax for an agent had not been determined, the highest concentration tested was 10 microM, except for SN-38, which was tested at a high concentration of 1 microM.
Cell Culture. All cells were maintained in an incubator at 37 degrees C and 5% CO2 with 95% humidity. The PDC lines were cultured according to standard operating procedures established by the NCI PDMR (https://pdmr.cancer.gov). Table 3 of the manuscript, lists the cell lines along with the number of the three cell types plated to form the mct-spheroids and media for tumor cell growth. After thawing, all PDC lines, except 997537-175-T-J1-PDC and 415267-285-R-J2-PDC, were cultured in Matrigel-coated flasks prepared with a working solution of 1X Ham's F-12 nutrient mix, without supplementation (Thermo Fisher Scientific, cat. 11765054), 100 U/mL penicillin-streptomycin (Thermo Fisher Scientific, cat. 15140122), and 2.5% Matrigel (Corning Inc., Corning, NY, cat. 354248) for the first three passages. The two PDC lines 997537-175-T-J1-PDC and 415267-285-R-J2-PDC were cultured on uncoated flasks. The 857933-349-R-J2-PDC line was cultured in 6C/Colon 1B media containing advanced DMEM/F-12 (Thermo Fisher Scientific, cat. 12634028), 10 mM HEPES (Thermo Fisher Scientific, cat. 15630080), 1X GlutaMAX supplement (Thermo Fisher Scientific, cat. 35050061), 0.1 mg/mL primocin (InvivoGen, San Diego, CA, cat. ant-pm-2), 10% defined fetal bovine serum, heat inactivated (HyClone Laboratories Inc., Logan, UT, cat. SH30070.03HI), 50% L-WRN conditioned media (ATCC, cat. CRL-3276), 1.25 mM N-Acetyl-L-cysteine (Sigma-Aldrich, cat. A9165), 10 mM nicotinamide (Sigma-Aldrich, cat. N0636), 1X B-27 supplement (Thermo Fisher Scientific, cat. 17504044), 1X N-2 supplement (Thermo Fisher Scientific, cat. […]

[1] = compound alone, run of 01/08/2024
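Also: spheroids exposed to compounds for seven days.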
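For viability, T/C in this document: 100% = DMSO vehicle control viability.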

| Compound | viability, T/C (compound 0.0316 µM) | viability, T/C (compound 0.1 µM) | viability, T/C (compound 0.316 µM) | viability, T/C (compound 1 µM) | viability, T/C (compound 3.16 µM) | viability, T/C (compound 10 µM) | IC50 (curve of compound) | IC50 [1] [µM] | IC50 (compound alone, run of 01/19/2024) [µM] | viability, T/C (compound 0.000316 µM) | viability, T/C (compound 0.001 µM) | viability, T/C (compound 0.00316 µM) | viability, T/C (compound 0.01 µM) |
| --- | --- | --- | --- | --- | --- | --- | --- | --- | --- | --- | --- | --- | --- |
| CC(C)n1c(=O)n(C)c2cnc3cc(F)c(-c4ccc(OCCCN5CCCCC5)nc4)cc3c21 | 78.6% and 82.9% and 98.3% | 101% and 92.7% and 85.2% | 67.3% and 87% and 77.9% | 63.5% and 85.9% and 71.9% | 56.2% and 77.5% and 64.2% | 17.9% and 67.2% and 43.8% | 3.19 µM and > 10 µM and 7.64 µM | – | – | – | – | – | – |
| CNCc1ccc(-c2[nH]c3cc(F)cc4c3c2CCNC4=O)cc1 | 113% and 99.8% and 88.3% | 91.7% and 96.3% and 114% | 86% and 112% and 90.9% | 88% and 96.9% and 104% | 87.2% and 83.7% and 97.5% | 76.9% and 70.9% and 70.5% | > 10 µM | – | – | – | – | – | – |
| Cc1cccc(N(C)C(=O)C2C(O)CCN2c2nc(C)cc(C(F)(F)F)c2C#N)c1 (stereo unspecified) | – | – | – | – | 94.3% [middle of 13 runs] | – | – | > 10 | > 10 | – | – | – | – |
| COc1ccc([C@@H](O)c2cc(-c3ncnc4cc(N5CCOCC5)ccc34)c(F)cc2Cl)nn1 | 102% and 95.6% and 99.4% | 109% and 88.8% and 107% | 71.6% and 95% and 74.9% | 57.8% and 63.2% and 70.5% | 54.7% and 51.1% and 55.4% | 38.2% and 43.1% and 35.9% | > 10 µM and 2.58 µM and 3.9 µM | – | – | – | – | – | – |
| O=C(Nc1ccc(O)c(NS(=O)(=O)c2ccc(F)cc2)c1)c1ccc(-c2ccccc2)cc1 | 91.2% and 109% and 105% | 85.2% and 97.7% and 112% | 114% and 129% and 88% | 112% and 139% and 119% | 101% and 130% and 122% | 75.8% and 76.8% and 71.4% | > 10 µM | – | – | – | – | – | – |
| O=C(c1cc(Cc2n[nH]c(=O)c3ccccc23)ccc1F)N1CCN(C(=O)C2CC2)CC1 | 99.2% and 94.9% and 95.6% | 83.3% and 99.5% and 98.7% | 101% and 83.8% and 88.6% | 81.2% and 111% and 91.4% | 83.2% and 97.8% and 72.5% | 60.4% and 69.9% and 69% | > 10 µM | – | – | – | – | – | – |
| CC1COCCN1c1cc(-c2ccnn2C)c2ccnc(-c3ccn[nH]3)c2n1 (stereo unspecified) | 69.8% and 79.1% and 76.9% | 54.8% and 52.9% and 67.8% | 47% and 40.5% and 47.4% | 38.7% and 46.3% and 39.9% | 32.2% and 36.3% and 36.2% | 28.1% and 25% and 30.5% | 0.206 µM and 0.182 µM and 0.308 µM | – | – | – | – | – | – |
| COC1C(OC(N)=O)C(O)C(Oc2ccc3c(O)c(NC(=O)c4ccc(O)c(CC=C(C)C)c4)c(=O)oc3c2C)OC1(C)C (stereo unspecified) | 109% [middle of 12 runs] | – | 94.6% [middle of 12 runs] | – | – | – | – | > 10 | – | – | – | – | – |
| Nc1ccn(C2OC(CO)C(O)C2(F)F)c(=O)n1 (stereo unspecified) | 62.2% and 68.3% and 56.9% | 47% and 40.3% and 54.1% | 44.5% and 47.4% and 45% | 44.4% and 48% and 49% | 44.2% and 42.1% and 40.3% | 37.1% and 38.8% and 31.7% | 0.0861 µM and 0.0737 µM and 0.318 µM | – | – | – | – | – | – |
| CC[C@@]1(O)C(=O)OCc2c1cc1n(c2=O)Cc2cc3c(CN(C)C)c(O)ccc3nc2-1 | 60.9% and 63.7% | 60.2% and 49.3% | – | – | – | – | > 0.1 µM and 0.0947 µM | – | – | 110% and 87.5% | 96.5% and 89.5% | 103% and 85.1% | 91.3% and 89.6% |
| C=CCn1c(=O)c2cnc(Nc3ccc(N4CCN(C)CC4)cc3)nc2n1-c1cccc(C(C)(C)O)n1 | 97.2% and 110% and 104% | 80.1% and 100% and 88.6% | 57.7% and 70.7% and 79.8% | 54.2% and 67% and 62.5% | – | – | > 1 µM | – | – | – | – | 97.5% and 109% and 88.1% | 87.6% and 92.1% and 104% |
| C#Cc1c(F)ccc2cc(O)cc(-c3ncc4c(N5CC6CCC(C5)N6)nc(OCC56CCCN5CC(F)C6)nc4c3F)c12 (stereo unspecified) | 97.4% and 84.7% and 98.7% | 87.7% and 85.2% and 98.1% | 79.3% and 79.1% and 79.6% | 67.5% and 74.8% and 66.9% | 80.7% and 73.1% and 71.4% | 37.6% and 42.5% and 32% | 6.76 µM and 7.47 µM and 4.99 µM | – | – | – | – | – | – |
